Data: patent US20130261142A1, “COMPOUNDS USED FOR TREATING CANCER AND THE USE THEREOF” (priority 2010, published 2013)
Entries after “also recorded” stand apart in the source; their conditions may differ. Counter-ions that a name gives are not always drawn.

What was measured:
MCF-7 SPS cells = test: LOPAC compounds tested on MCF-7 SPS cells (Table 2); settings: Compounds that inhibit cancer stem cells, 3 μM stated for Niclosamide
Description: The morphology and number of the spheroids were further analyzed by software image pro plus.

OVCA sps cells = test: LOPAC compounds tested on OVCA sps cells, MTS / ATP-based assay (Table 3); format: cell-based; settings: proliferation and differentiation
Description: CP70 sps cells were seeded in a 96-well culture plate (1×10^3 cells/well) and cultured for 24 hr, and then treated with 30 μM of various compounds selected from the LOPAC database. Following 3-day treatment, the vitality of the treated cells was measured by CellTiter-Glo® Luminescent Cell Vitality Assay kit (Promega) according to the manufacturer's instructions.
(§1) The vitality of the treated cells was measured by MTS assay using MTS-based CellTiter 96 aqueous non-radioactive cell proliferation assay kit (Promega) according to the manufacturer's instructions.

[1] = test system: OVCICs sps cells collected from ovarian cancer patient(s); test: Patients' OVCA specimen-derived cells (pdOVCICs / OVCICs sps), MTS assay; format: cell-based, human; settings: in vitro
Description: A total of 5000 pdOVCICs were seeded onto each well in 96-well plates and each plate was treated with different concentrations of Niclosamide in duplicates for 3 days. The vitality of pdOVCICs cells was measured by MTS assay.

CP70 sps cells = test: Cytotoxicity / vitality of CP70 sps cells (MTS assay); settings: for inhibition / cytotoxicity effect on CP70 sps (OVCA sps) cells: 3 μM, MTS assay
Description: as §1
The vitality of the CP70 sps cells was measured by MTS assay. For preclinical test, two groups with five mice each were i.p. injected with 1×10^4 of CP70 sps cells alone or followed by Niclosamide treatment (10 mg/kg/daily) from day 1 to day 47, respectively. The body weights of the two groups of mice were monitored every 3 days during day 36 to day 48. After 48 days, the mice were sacrificed to examine the tumor nodules formation in the abdominal cavity.

CP70 cells = test: Cytotoxicity on CP70 (OVCA) cells
[2] = Cisplatin treatment, FIGS. 10A-10C

Row | Compound | Cancer cell survival (%) (MCF-7 SPS cells) | Cancer cell survival (%) (OVCA sps cells) | also measured
1 | O=Nc1ccc2oc(=O)ccc2c1 [6-Nitroso-1,2-benzopyrone] | 1.5% | – | –
2 | C[C@@H]1O[C@@H](O[C@H]2C[C@@H](O)[C@]3(CO)[C@H]4[C@H](O)C[C@]5(C)[C@@H](C6=CC(=O)OC6)CC[C@]5(O)[C@@H]4CC[C@]3(O)C2)[C@H](O)[C@H](O)[C@H]1O [Ouabain] | 1.8% | 26.69% | –
3 | CCN(CC)C(=S)SSC(=S)N(CC)CC [Tetraethylthiuram disulfide] | 10.18% | – | –
4 | CC[C@H]1CN2CCc3cc(OC)c(OC)cc3[C@@H]2C[C@@H]1C[C@H]1NCCc2cc(OC)c(OC)cc21 [Emetine dihydrochloride hydrate] | 7.3% | 49.13% | –
5 | C[n+]1cc2c3c(ccc2c2ccc4cc5c(cc4c21)OCO5)OCO3 [Sanguinarine chloride] | – | 20.37% | –
6 | C=CC1=C(C)c2cc3[nH]c(cc4nc(cc5[nH]c(cc1n2)c(C)c5CCC(=O)O)C(CCC(=O)O)=C4C)c(C)c3C=C [Protoporphyrin IX disodium] | 1.8% | 34.75% | –
7 | N#Cc1c(-c2ccccc2)no[n+]1[O-] [4-Phenyl-3-furoxancarbonitrile] | 1.1% | – | –
8 | CC1CCCC=CC2CC(O)CC2C(O)C=CC(=O)O1 (centres unmarked) [γ-4-Dihydroxy-2-(6-hydroxy-1-heptenyl)-4-cyclopentanecrotonic acid λ-lactone] | 6.6% | 41.18% | –
9 | CC[C@@]1(O)C(=O)OCc2c1cc1n(c2=O)Cc2cc3ccccc3nc2-1 [(S)-(+)-Camptothecin] | 8.2% | 39.11% | –
10 | CNc1ccc2oc(C[C@H]3O[C@@]4(CC[C@H]3C)O[C@H]([C@H](C)C(=O)c3ccc[nH]3)[C@H](C)C[C@H]4C)nc2c1C(=O)O [Calcimycin] | – | 42.70% | –
11 | c1ccc2c(c1)[I+]c1ccccc1-2 [Diphenyleneiodonium chloride] | – | 31.37% | –
12 | CC(C)(C)c1ccc(S(=O)(=O)/C=C/C#N)cc1 [Bay 11-7085, (E)3-((4-t-Butylphenyl)sulfonyl)-2-propenenitrile] | 4% | – | –
13 | N.S=C(S)N1CCCC1 [Ammonium pyrrolidinedithiocarbamate] | 4.4% | – | –
14 | Cc1cc(N)c2ccccc2[n+]1CCCCCCCCCC[n+]1c(C)cc(N)c2ccccc21 [Dequalinium dichloride] | – | 54.68% | –
15 | CC(C)(C)[C@]1(O)CCN2Cc3cccc4c3[C@H](c3ccccc3CC4)[C@@H]2C1.Cl [(+)-Butaclamol hydrochloride] | – | 42.81% | differentiation and growth of ovarian cancer cells [1]: successfully inhibited; inhibition / cytotoxicity effect on CP70 sps (OVCA sps) cells (CP70 sps cells; hydrochloride): can kill; also recorded: significant inhibition effect; inhibition / cytotoxicity effect on CP70 sps (OVCA sps) cells (CP70 sps cells; listed as (+)-butaclamol hydrochloride, hydrochloride): significant inhibition effects; numbers of ovarian cancer stem cells in CP70 SPS cell culture in vitro (CP70 sps cells; FIG. 14 / FIG. 15): inhibited; cytotoxicity effect on CP70 (OVCA) cells (CP70 cells; 3 μM, hydrochloride): can kill; also recorded: toxic
16 | Vinblastine sulfate salt | – | 64.6% | –
17 | C[C@@H]1O[C@@H](O[C@H]2C[C@@H](O)[C@]3(CO)[C@H]4[C@H](O)C[C@]5(C)[C@@H]([C@@H]6COC(=O)C6)CC[C@]5(O)[C@@H]4CC[C@]3(O)C2)[C@H](O)[C@H](O)[C@H]1O [Dihydroouabain] | 9.1% | 45.97% | –

Row | Compound | Cancer cell survival (%) (MCF-7 SPS cells) | Cancer cell survival (%) (OVCA sps cells) | also measured
18 | CC1(C)CCC2=C(O1)c1ccccc1C(=O)C2=O [beta-Lapachone, 3,4-Dihydro-2,2-Dimethyl-2H-Naphtho[1,2-B] Pyran-5,6-Dione] | 1.67% | – | –
19 | Brc1c(Br)c(Br)c2[nH]cnc2c1Br [CK2 Inhibitor 2, 4,5,6,7-tetrabromobenzimidazole] | 8.3% | – | –
20 | O.c1cnc2c(c1)ccc1cccnc12 [1,10-Phenanthroline monohydrate] | 7% | – | –
21 | CN1CCN(c2nc3cc(C(F)(F)F)ccc3n3cccc23)CC1.O=C(O)/C=C\C(=O)O [CGS-12066A maleate, 7-Trifluoromethyl-4-(4-methyl-1-piperazinyl)pyrrolo-[1,2-a]quinoxaline maleate salt] | 16.3% | – | –
22 | COc1ccc(NC(=O)c2ccc(-c3ccc(-c4noc(C)n4)cc3C)cc2)cc1N1CCN(C)CC1.Cl.O [GR 127935 hydrochloride, N-[4-Methoxy-3-(4-methyl-1-piperazinyl)phenyl]-2′-methyl-4′-(5-methyl-1,2,4-oxadiazol-3-yl)-1,1′-biphenyl-4-carboxamide hydro chloride hydrate] | 2.8% | – | –
23 | COc1cc2nc(N3CCN(C(=O)c4ccco4)CC3)nc(N)c2cc1OC [Prazosin hydrochloride] | 1.1% | – | –
24 | COc1ccc2c(c[n+](C)c3c4cc5c(cc4ccc23)OCO5)c1OC [Chelerythrine chloride] | 9.9% | – | –
25 | CCN(CC)CCCC(C)Nc1c2ccc(Cl)cc2nc2ccc(OC)cc12 (centres unmarked) [Quinacrine dihydrochloride] | 3.8% | – | –
26 | O=C1Nc2cc(Br)ccc2/C1=C1/Nc2ccccc2/C1=N\O [BIO, (2′Z,3′E)-6-Bromoindirubin-3′-oxime] | 2.4% | – | –
27 | CC1=C(/C=C/C(C)=C/C=C/C(C)=C/C(=O)Nc2ccc(O)cc2)C(C)(C)CCC1 [Retinoic acid p-hydroxyanilide] | 13% | – | –
28 | CCn1cnc2c(Nc3cccc(Cl)c3)nc(N[C@@H]3CCCC[C@@H]3N)nc21.Cl (relative stereo) [CGP-74514A hydrochloride, N2-(cis-2-Aminocyclohexyl)-N6-(3-chlorophenyl)-9-ethyl-9H-purine-2,6-diamine hydrochloride] | 10% | – | –
29 | CC(=O)c1c(O)c(C)c(O)c(Cc2c(O)c3c(c(C(=O)/C=C/c4ccccc4)c2O)OC(C)(C)C=C3)c1O [Rottlerin] | – | 38.89% | inhibition / cytotoxicity effect on CP70 sps (OVCA sps) cells (CP70 sps cells): significant inhibition effect; also recorded: toxic
30 | N.N.[Cl][Pt][Cl] [Cisplatin] | – | – | inhibition of CP70 sps cells (CP70 sps cells; [2]): inhibited; inhibition of CP70 cells (CP70 cells; [2]): inhibited
31 | CCCCCCCCCCCCCCCC(=O)OC(CC(=O)O)C[N+](C)(C)C.[Cl-] (racemic) [Palmitoyl-DL-Carnitine chloride] | 9.7% | – | –
32 | O=C1c2c(O)ccc(O)c2C(=O)c2c(NCCNCCO)ccc(NCCNCCO)c21 [Mitoxantrone] | 5.2% | – | –
33 | Clc1ccc(C(c2ccc(Cl)cc2)n2cc[n+](CC(OCc3ccc(Cl)cc3Cl)c3ccc(Cl)cc3Cl)c2)cc1.[Cl-] (centres unmarked) [Calmidazolium chloride, 1-[bis(4-Chlorophenyl)methyl]-3-[2-(2,4-dichlorophenyl)-2-(2,4-dichlorobenzyloxy)ethyl]-1H-imidazolium chloride] | 3.9% | – | –
34 | COc1ccc2c(c1)/C(=C/c1cnc[nH]1)C(=O)N2 [SU 9516, 3-[1-(3H-Imidazol-4-yl)-meth-(Z)-ylidene]-5-methoxy-1,3-dihydro-indol-2-one] | 10.7% | – | –
